A word on the LD50: it is the dose at which mortality reaches 50%. A lower LD50 goes with greater toxicity.

Results on eight molecules are retold here after patent US5559115A, “Oncogene function-inhibitory agent, method for inhibiting oncogene function, and treatment of cancer” (Terumo Kabushiki Kaisha, priority 1993, dated 1996).

The structures appear in SMILES notation. Structures can show the parent of a compound that is named as a salt.

One data set deals with K-ras^ts-NRK cells. Put plainly: Action mechanism: morphology / M phase observation in K-ras^ts-NRK cells. Format: cell-based, rat. The settings on record: 33° C., 0.1 μg/ml, after one day. How it is done:
Before the addition of the III-121C, the cells grew atop the other and had projections or processes on their surface (FIG. 9(a)).
The procedure as described above was repeated by replacing the III-121C with 0.1 μg/ml of vinblastine, 0.1 μg/ml of vincristine and 0.1 μg/ml of colchicine, which are known as microtubule formation inhibitors.

In another data set the test system is Ras protein. Particulars: cited from earlier work.
A short description of data set [1]: Acute toxicity (LD50) on mouse upon intravenous injection. The settings on record: in vivo, intravenous injection. Format: in vivo. How it is done:
Toxicity (LD50) on mouse of III-121C upon intravenous injection was measured.

The next data set has as its system K-ras-NRK cells. The data set is described as follows: Action mechanism: flow-cytometric DNA content analysis of K-ras-NRK cells. The class given is cell-based, rat. Particulars: 24 hours; III-121C 0.3 and 1 μg/ml, vinblastine 0.1 μg/ml (FIG. 11). How it is done:
FIGS. 11(a) to (d) are graphs showing the results of flow-cytometric analysis wherein the number of cells is depicted in relation to their DNA content, upon addition of no reagent (FIG. 11(a)), 0.3 μg/ml of III-121C (FIG. 11(b)), 1 μg/ml of III-121C (FIG. 11(c)), and 0.1 μg/ml of vinblastine (FIG. 11(d)) to the K-ras NRK cell culture.
To the cells of K-ras-NRK in their propagation was added either one of III-121C and vinblastine. No reagent was added to the control cells. After 24 hours from the addition, the cells were fractionated with a cell sorter to examine the DNA quantity in relation to the number of the cells.

`COc1cc2c(c(OC)c1OC)-c1ccc(OC)c(=O)cc1[C@@H](NC(C)=O)CC2` [colchicine, reference compound]: the “number of circular or elongated cells in M phase” value (from here on “number”) in the data set on K-ras^ts-NRK cells is “a significant increase in the number of circular or elongated cells that are in their M phase of the cell cycle”.
As for `CC[C@]1(O)C[C@H]2CN(CCc3c([nH]c4ccccc34)[C@@](C(=O)OC)(c3cc4c(cc3OC)N(C=O)[C@H]3[C@@](O)(C(=O)OC)[C@H](OC(C)=O)[C@]5(CC)C=CCN6CC[C@]43[C@@H]65)C2)C1` [vincristine, reference compound], the “number” value in the data set with K-ras^ts-NRK cells was “a significant increase in the number of circular or elongated cells that are in their M phase of the cell cycle”.
Take `CC[C@H](C)C(=O)O[C@H]1CCC=C2C=C[C@H](C)[C@H](CC[C@@H]3C[C@@H](O)CC(=O)O3)[C@H]21` [compactin]: in the data set on Ras protein, the “inhibition of the action of the ras oncogene product (Ras protein)” value was “capable of inhibiting the action of the ras oncogene product”.
On to `CC[C@]1(O)C[C@@H]2CN(CCc3c([nH]c4ccccc34)[C@@](C(=O)OC)(c3cc4c(cc3OC)N(C)[C@H]3[C@@](O)(C(N)=O)[C@H](O)[C@]5(CC)C=CCN6CC[C@]43[C@@H]65)C2)C1` [vindecine sulfate, reference compound], for which, in data set [1], the LD50 was determined as 9.1 mg/kg.
As for `CC[C@]1(O)C[C@H]2CN(CCc3c([nH]c4ccccc34)[C@@](C(=O)OC)(c3cc4c(cc3OC)N(C=O)[C@H]3[C@@](O)(C(=O)OC)[C@H](OC(C)=O)[C@]5(CC)C=CCN6CC[C@]43[C@@H]65)C2)C1` [vincristine sulfate, reference compound], the LD50 in data set [1] was determined as 2.5 mg/kg.
For `Nc1nc2c(ncn2[C@@H]2O[C@H](CO)[C@@H](O)[C@H]2O)c(=O)o1` [oxanosin], the “inhibition of the action of the ras oncogene product (Ras protein)” value with Ras protein is on record as “capable of inhibiting the action of the ras oncogene product”.
On to `CC[C@]1(O)C[C@@H]2CN(CCc3c([nH]c4ccccc34)[C@@](C(=O)OC)(c3cc4c(cc3OC)N(C)[C@H]3[C@@](O)(C(=O)OC)[C@H](OC(C)=O)[C@]5(CC)C=CCN6CC[C@]43[C@@H]65)C2)C1` [vinblastine sulfate, reference compound], for which, in data set [1], the LD50 worked out at 15.2 mg/kg.
Take `CC[C@]1(O)C[C@@H]2CN(CCc3c([nH]c4ccccc34)[C@@](C(=O)OC)(c3cc4c(cc3OC)N(C)[C@H]3[C@@](O)(C(=O)OC)[C@H](OC(C)=O)[C@]5(CC)C=CCN6CC[C@]43[C@@H]65)C2)C1` [vinblastine, reference compound]: in the data set on K-ras-NRK cells, the “cell cycle / cell division inhibition” value is given as “inhibition of G2 /M phase in the cell cycle” and the “distribution of DNA quantity in cells” value is reported as “an increase in the number of cells having a relatively large quantity of DNA was observed”. In addition, the “number” value with K-ras^ts-NRK cells was “a significant increase in the number of circular or elongated cells that are in their M phase of the cell cycle”.
